In US10189854B2, “Substituted pyrimidine compounds” (Grünenthal GmbH, priority 2014, dated 2019):

What follows are compounds tested against human PDE4B1 (Homo sapiens (Human), UniProt Q07343) (assay: TR-FRET assay using the LANCE Ultra cAMP kit to determine the activity of hPDE4B1). Settings: IC50 inhibition of PDE4B, mean.
Format: biochemical
Excerpt: TR-FRET Assay Using the LANCE® Ultra cAMP Kit to Determine the Activity of hPDE4B1
The effects of the compounds on the activity of the human PDE4B1 was quantified by measuring the production of 5′AMP from cAMP using a human recombinant enzyme expressed in Sf9 cells and the LANCE® Ultra cAMP kit, a TR-FRET detection method from PerkinElmer. The human PDE4B1 enzyme was purchased from SignalChem Lifesciences (Catalog# P92-31BG, Lot# H296-2).
The test compound, reference compound or water (control) was mixed with the enzyme (0.96 U) in a reaction buffer containing 50 mM Tris-HCl, 50 mM MgCl2 and 5 mM DTT (pH 8.5). Thereafter, the reaction was initiated by addition of 500 nM cAMP (substrate) and the mixture was incubated for 30 minutes at room temperature. For control basal measurements, the enzyme was omitted from the reaction mixture. After 30 minutes, the reaction was stopped and diluted by a factor of 100 with the reaction buffer supplemented with 500 μM IBMX. The fluorescence donor (europium chelate-labeled cAMP) and the fluorescence acceptor (anti-cAMP antibody labeled with the ULight™ dye) were then added together with 500 μM IBMX to a 10 μl aliquot. After 60 minutes, the fluorescence transfer corresponding to the amount of residual cAMP was measured at λex=337 nm, λem=620 nm and λem=665 nm using a microplate reader (PHERAstar, BMG). The enzyme activity was determined by dividing the signal measured at 665 nm by that measured at 620 nm (ratio) multiplied by 10000. The results were expressed as percent inhibition of the control enzyme activity. IC50 values (IC50=concentration causing a half-maximal inhibition of control specific activity) were derived from dose response measurements with ten different concentrations (n=3; N=1-3).
Several compounds according to the invention are tested with above mentioned assay.

Chain of human PDE4B1 (Q07343 whole entry): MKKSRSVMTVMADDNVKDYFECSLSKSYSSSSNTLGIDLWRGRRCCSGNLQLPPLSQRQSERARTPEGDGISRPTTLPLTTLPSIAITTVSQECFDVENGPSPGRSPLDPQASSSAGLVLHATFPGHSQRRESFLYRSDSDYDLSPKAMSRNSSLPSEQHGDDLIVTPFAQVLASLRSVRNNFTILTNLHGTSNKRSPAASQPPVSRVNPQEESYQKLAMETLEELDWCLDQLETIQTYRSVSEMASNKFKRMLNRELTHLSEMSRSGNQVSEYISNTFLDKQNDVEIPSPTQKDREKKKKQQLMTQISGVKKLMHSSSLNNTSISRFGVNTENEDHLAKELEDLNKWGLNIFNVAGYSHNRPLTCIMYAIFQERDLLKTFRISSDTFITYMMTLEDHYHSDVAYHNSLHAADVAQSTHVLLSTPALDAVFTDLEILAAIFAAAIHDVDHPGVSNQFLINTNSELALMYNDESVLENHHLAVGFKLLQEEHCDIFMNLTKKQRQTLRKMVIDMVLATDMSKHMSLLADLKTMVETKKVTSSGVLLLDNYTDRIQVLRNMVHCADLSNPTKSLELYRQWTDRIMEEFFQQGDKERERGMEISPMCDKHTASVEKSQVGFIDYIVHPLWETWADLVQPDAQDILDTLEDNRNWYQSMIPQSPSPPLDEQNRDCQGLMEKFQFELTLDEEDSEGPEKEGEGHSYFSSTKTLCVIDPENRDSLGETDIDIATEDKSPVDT

Row | Compound | IC50 [µM]
1 | COCCN1CCN(C(=O)c2ccc3c(c2)N(c2ncc(-c4ccccc4F)cn2)CC32CC2)CC1 [Compound 235, [1-[5-(2-Fluorophenyl)-pyrimidin-2-yl]-spiro[1,2-dihydro-indole-3,1′-cylcopropane]-6-yl]-[4-(2-methoxy-ethyl)-piperazin-1-yl]-methanone] | 0.1 to 1
2 | NC(=O)CN1CCN(C(=O)c2ccc3c(c2)N(c2ncc(-c4ccccc4F)cn2)CC32CC2)CC1 [Compound 236, 2-[4-[1-[5-(2-Fluorophenyl)-pyrimidin-2-yl]-spiro[1,2-dihydro-indole-3,1′-cyclopropane]-6-carbonyl]-piperazin-1-yl]-acetamide] | 0.1 to 1
3 | O=C(O)CN1CCN(C(=O)c2ccc3c(c2)N(c2ncc(-c4ccccc4F)cn2)CC32CC2)CC1 [Compound 237, 2-[4-[1-[5-(2-Fluorophenyl)-pyrimidin-2-yl]-spiro[1,2-dihydro-indole-3,1′-cyclopropane]-6-carbonyl]-pieprazin-1-yl]-acetic acid] | 0.1 to 1
4 | O=C(O)C1CCCN(C(=O)c2ccc3c(c2)N(c2ncc(-c4ccccc4F)cn2)CC32CC2)C1 (centres unmarked) [Compound 238, 1-[1-[5-(2-Fluorophenyl)-pyrimidin-2-yl]-spiro[1,2-dihydro-indole-3,1′-cyclopropane]-6-carbonyl]-piperidine-3-carboxylic acid] | < 0.1
5 | C[C@@H](O)CN1CCN(C(=O)c2ccc3c(c2)N(c2ncc(-c4ccccc4F)cn2)CC32CC2)CC1 [Compound 239, [1-[5-(2-Fluorophenyl)-pyrimidin-2-yl]-spiro[1,2-dihydro-indole-3,1′-cyclopropane]-6-yl]-[4-[(2R)-2-hydroxy-propyl]-piperazin-1-yl]-methanone] | < 0.1
6 | C[C@H](O)CN1CCN(C(=O)c2ccc3c(c2)N(c2ncc(-c4ccccc4F)cn2)CC32CC2)CC1 [Compound 240, [1-[5-(2-Fluorophenyl)-pyrimidin-2-yl]-spiro[1,2-dihydro-indole-3,1′-cyclopropane]-6-yl]-[4-[(2S)-2-hydroxy-propyl]-piperazin-1-yl]-methanone] | 0.1 to 1
7 | CCc1ccnc(-c2cnc(N3CC4(CC4)c4ccc(C(=O)N5CCNC(=O)C5)cc43)nc2)c1 [Compound 243, 4-[1-[5-(4-Ethyl-pyridin-2-yl)-pyrimidin-2-yl]-spiro[1,2-dihydro-indole-3,1′-cyclopropane]-6-carbonyl]-piperazin-2-one] | < 0.1
8 | COc1ccnc(-c2cnc(N3CC4(CC4)c4ccc(C(=O)N5CCNC(=O)C5)cc43)nc2)c1 [Compound 244, 4-[1-[5-(4-Methoxy-pyridin-2-yl)-pyrimidin-2-yl]-spiro[1,2-dihydro-indole-3,1′-cyclopropane]-6-carbonyl]-piperazin-2-one] | < 0.1
9 | CN(CC(=O)O)C(=O)c1ccc2c(c1)N(c1ncc(-c3ccccc3F)cn1)CC21CC1 [Compound 245, 2-[[1-[5-(2-Fluorophenyl)-pyrimidin-2-yl]-spiro[1,2-dihydro-indole-3,1′-cyclopropane]-6-carbonyl]-methyl-amino]-acetic acid] | < 0.1
10 | COC(=O)CN(C)C(=O)c1ccc2c(c1)N(c1ncc(-c3ccccc3F)cn1)CC21CC1 [Compound 246, 2-[[1-[5-(2-Fluorophenyl)-pyrimidin-2-yl]-spiro[1,2-dihydro-indole-3,1′-cyclopropane]-6-carbonyl]-methyl-amino]acetic acid methyl ester] | 0.1 to 1
11 | O=C(c1ccc2c(c1)N(c1ncc(-c3ccccc3)cn1)CC21CC1)N1C[C@H]2C[C@@H]1CN2 [Compound 248, [(1R,4R)-2,5-Diazabicyclo[2.2.1]heptan-2-yl]-[1-(5-phenyl-pyrimidin-2-yl)-spiro[1,2-dihydro-indole-3,1′-cyclopropane]-6-yl]-methanone] | 0.1 to 1
12 | O=C(c1ccc2c(c1)N(c1ncc(-c3ccccc3)cn1)CC21CC1)N1C[C@@H]2C[C@H]1CN2 [Compound 249, [(1S,4S)-2,5-Diazabicyclo[2.2.1]heptan-2-yl]-[1-(5-phenyl-pyrimidin-2-yl)-spiro[1,2-dihydro-indole-3,1′-cyclopropane]-6-yl]-methanone] | < 0.1
13 | O=C(c1ccc2c(c1)N(c1ncc(-c3cccc(O)c3)cn1)CC21CC1)N1CC2CC1CN2 (centres unmarked) [Compound 250, (2,5-Diazabicyclo[2.2.1]heptan-2-yl)-[1-[5-(3-hydroxyphenyl)-pyrimidin-2-yl]-spiro[1,2-dihydro-indole-3,1′-cyclopropane]-6-yl]-methanone] | < 0.1
14 | CN(C)c1ccnc(-c2cnc(N3CC4(CC4)c4ccc(C(=O)N5CCNC(=O)C5)cc43)nc2)c1 [Compound 255] | < 0.1
15 | CN(CC(N)=O)C(=O)c1ccc2c(c1)N(c1ncc(-c3ccccc3F)cn1)CC21CC1 [Compound 256, N-(Carbamoyl-methyl)-1-[5-(2-fluorophenyl)-pyrimidin-2-yl]-N-methyl-spiro[1,2-dihydro-indole-3,1′-cyclopropane]-6-carboxylic acid amide] | < 0.1

Continued, values first:

Row | IC50 [µM] | Compound
16 | < 0.1 | CN(CCO)C(=O)c1ccc2c(c1)N(c1ncc(-c3ccnc(F)c3)cn1)CC21CC1 [Compound 231, 1-[5-(2-Fluoro-pyridin-4-yl)-pyrimidin-2-yl]-N-(2-hydroxy-ethyl)-N-methyl-spiro[1,2-dihydro-indole-3,1′-cyclopropane]-6-carboxylic acid amide]
17 | < 0.1 | CN(CCO)C(=O)c1ccc2c(c1)N(c1ncc(-c3ccc(F)cn3)cn1)CC21CC1 [Compound 232, 1-[5-(5-Fluoro-pyridin-2-yl)-pyrimidin-2-yl]-N-(2-hydroxy-ethyl)-N-methyl-spiro[1,2-dihydro-indole-3,1′-cyclopropane]-6-carboxylic acid amide]
18 | < 0.1 | CN(CCO)C(=O)c1ccc2c(c1)N(c1ncc(-c3cc(F)ccn3)cn1)CC21CC1 [Compound 233, 1-[5-(4-Fluoro-pyridin-2-yl)-pyrimidin-2-yl]-N-(2-hydroxy-ethyl)-N-methyl-spiro[1,2-dihydro-indole-3,1′-cyclopropane]-6-carboxylic acid amide]
19 | < 0.1 | Cc1cccc(-c2cnc(N3CC4(CC4)c4ccc(C(=O)N(C)CCO)cc43)nc2)n1 [Compound 234, N-(4-Hydroxy-ethyl)-N-methyl-1-[5-(6-methyl-pyridin-2-yl)-pyrimidin-2-yl]-spiro[1,2-dihydro-indole-3,1′-cyclopropane]-6-carboxylic acid amide]
20 | < 0.1 | CCc1ccnc(-c2cnc(N3CC4(CC4)c4ccc(C(=O)N(C)CCO)cc43)nc2)c1 [Compound 241, 1-[5-(4-Ethyl-pyridin-2-yl)-pyrimidin-2-yl]-N-(2-hydroxy-ethyl)-N-methyl-spiro[1,2-dihydro-indole-3,1′-cyclopropane]-6-carboxylic acid amide]
21 | < 0.1 | CC(C)c1ccnc(-c2cnc(N3CC4(CC4)c4ccc(C(=O)N(C)CCO)cc43)nc2)c1 [Compound 242, N-(2-Hydroxy-ethyl)-1-[5-(4-isopropyl-pyridin-2-yl)-pyrimidin-2-yl]-N-methyl-spiro[1,2-dihydro-indole-3,1′-cyclopropane]-6-carboxylic acid amide]
22 | < 0.1 | CN(CCO)C(=O)c1ccc2c(c1)N(c1ncc(-c3cc(N)ccn3)cn1)CC21CC1 [Compound 251, 1-[5-(4-Amino-pyridin-2-yl)-pyrimidin-2-yl]-N-(2-hydroxy-ethyl)-N-methyl-spiro[1,2-dihydro-indole-3,1′-cyclopropane]-6-carboxylic acid amide]
23 | < 0.1 | CC(=O)Nc1ccnc(-c2cnc(N3CC4(CC4)c4ccc(C(=O)N(C)CCO)cc43)nc2)c1 [Compound 252, 1-[5-(4-Acetylamino-pyridin-2-yl)-pyrimidin-2-yl]-N-(2-hydroxy-ethyl)-N-methyl-spiro[1,2-dihydro-indole-3,1′-cyclopropane]-6-carboxylic acid amide]
24 | < 0.1 | COc1ccc(F)c(-c2cnc(N3CC4(CC4)c4ccc(C(=O)N(C)CCO)cc43)nc2)c1 [Compound 253, 1-[5-(2-Fluoro-5-methoxy-phenyl)-pyrimidin-2-yl]-N-(2-hydroxy-ethyl)-N-methyl-spiro[1,2-dihydro-indole-3,1′-cyclopropane]-6-carboxylic acid amide]
25 | < 0.1 | CN(CCO)C(=O)c1ccc2c(c1)N(c1ncc(-c3cc(C4CC4)ccn3)cn1)CC21CC1 [Compound 254, 1-[5-(4-Cyclopropyl-pyridin-2-yl)-pyrimidin-2-yl]-N-(2-hydroxy-ethyl)-N-methyl-spiro[1,2-dihydro-indole-3,1′-cyclopropane]-6-carboxylic acid amide]
26 | < 0.1 | CCOc1ccnc(-c2cnc(N3CC4(CC4)c4ccc(C(=O)N(C)CCO)cc43)nc2)c1 [Compound 257, 1-[5-(4-Ethoxy-pyridin-2-yl)-pyrimidin-2-yl]-N-(2-hydroxy-ethyl)-N-methyl-spiro[1,2-dihydro-indole-3,1′-cyclopropane]-6-carboxylic acid amide]
